# Key:
# Assay in all cases: Apparent affinity (EC50) of energy transfer probes by titration onto live HEK293 cells expressing kinase/Nluc fusions (Table S1)
# Type in all cases: binding
# [1] = molecular target: full-length kinase/Nluc fusion proteins (Homo sapiens, UniProt P07333); conditions: CSF1R, Nluc C; read-out: Probe EC50
# [2] = molecular target: full-length kinase/Nluc fusion proteins (Homo sapiens, UniProt P06241); conditions: FYN, Nluc C; read-out: Probe EC50
# [3] = molecular target: full-length kinase/Nluc fusion proteins (Homo sapiens, UniProt P29322); conditions: EPHA8, Nluc C; read-out: Probe EC50
# [4] = molecular target: full-length kinase/Nluc fusion proteins (Homo sapiens, UniProt P54753); conditions: EPHB3, Nluc C; read-out: Probe EC50
# [5] = molecular target: full-length kinase/Nluc fusion proteins (Homo sapiens, UniProt Q16539); conditions: MAPK14, Nluc C; read-out: Probe EC50
# full-length kinase/Nluc fusion proteins (Homo sapiens, UniProt Q16539), sequence (Q16539 whole entry, the tested form may be a part): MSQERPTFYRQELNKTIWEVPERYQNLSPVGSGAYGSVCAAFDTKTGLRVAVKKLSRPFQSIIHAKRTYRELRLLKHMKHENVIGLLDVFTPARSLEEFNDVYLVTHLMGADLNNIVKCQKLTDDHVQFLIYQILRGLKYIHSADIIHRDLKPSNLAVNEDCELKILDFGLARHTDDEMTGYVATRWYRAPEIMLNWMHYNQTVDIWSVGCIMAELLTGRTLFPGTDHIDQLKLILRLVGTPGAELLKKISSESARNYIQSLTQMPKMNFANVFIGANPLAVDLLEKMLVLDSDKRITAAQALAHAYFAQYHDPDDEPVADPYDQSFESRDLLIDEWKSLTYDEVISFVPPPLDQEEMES
# [6] = molecular target: full-length kinase/Nluc fusion proteins (Homo sapiens, UniProt P04629); conditions: NTRK1, Nluc C; read-out: Probe EC50
# full-length kinase/Nluc fusion proteins (Homo sapiens, UniProt P04629), sequence (P04629 33-796): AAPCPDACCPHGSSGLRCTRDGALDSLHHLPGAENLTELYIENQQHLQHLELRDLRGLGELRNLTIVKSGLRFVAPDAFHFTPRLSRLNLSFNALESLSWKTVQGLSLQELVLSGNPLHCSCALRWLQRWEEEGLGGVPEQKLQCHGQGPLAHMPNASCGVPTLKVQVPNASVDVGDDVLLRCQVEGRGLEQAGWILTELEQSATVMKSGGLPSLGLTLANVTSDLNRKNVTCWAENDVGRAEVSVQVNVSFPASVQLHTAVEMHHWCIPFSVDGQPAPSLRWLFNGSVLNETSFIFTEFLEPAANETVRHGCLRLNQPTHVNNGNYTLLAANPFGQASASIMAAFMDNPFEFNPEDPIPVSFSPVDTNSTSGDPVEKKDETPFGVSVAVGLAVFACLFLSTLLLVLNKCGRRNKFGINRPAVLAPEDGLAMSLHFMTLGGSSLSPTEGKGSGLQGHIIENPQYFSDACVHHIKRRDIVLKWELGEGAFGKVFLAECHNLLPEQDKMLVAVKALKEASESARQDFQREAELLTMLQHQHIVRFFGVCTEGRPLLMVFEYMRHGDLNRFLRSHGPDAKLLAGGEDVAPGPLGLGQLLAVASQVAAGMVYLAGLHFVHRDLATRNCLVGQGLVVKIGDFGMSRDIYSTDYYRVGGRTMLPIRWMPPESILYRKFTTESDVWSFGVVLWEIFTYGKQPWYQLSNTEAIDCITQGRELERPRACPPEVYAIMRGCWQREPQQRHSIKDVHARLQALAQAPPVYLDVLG
# [7] = molecular target: full-length kinase/Nluc fusion proteins (Homo sapiens, UniProt O75385); conditions: ULK1 (NP_003556), Nluc orientation N; read-out: Probe EC50
# [8] = molecular target: full-length kinase/Nluc fusion proteins (Homo sapiens, UniProt P08581); conditions: MET, Nluc C; read-out: Probe EC50
# [9] = molecular target: full-length kinase/Nluc fusion proteins (Homo sapiens, UniProt Q9UHD2); conditions: TBK1 (NP_037386), Nluc orientation N; read-out: Probe EC50
# [10] = molecular target: full-length kinase/Nluc fusion proteins (Homo sapiens, UniProt P36888); conditions: FLT3, Nluc C; read-out: Probe EC50
# [11] = molecular target: full-length kinase/Nluc fusion proteins (Homo sapiens, UniProt O95835); conditions: LATS1, Nluc C; read-out: Probe EC50
# [12] = molecular target: full-length kinase/Nluc fusion proteins (Homo sapiens, UniProt Q14289); conditions: PTK2B, Nluc C; read-out: Probe EC50
# [13] = molecular target: full-length kinase/Nluc fusion proteins (Homo sapiens, UniProt Q14164); conditions: IKBKE, Nluc N; read-out: Probe EC50
# [14] = molecular target: full-length kinase/Nluc fusion proteins (Homo sapiens, UniProt Q96GD4); conditions: AURKB, Nluc C; read-out: Probe EC50
# full-length kinase/Nluc fusion proteins (Homo sapiens, UniProt Q96GD4), sequence (Q96GD4 whole entry, the tested form may be a part): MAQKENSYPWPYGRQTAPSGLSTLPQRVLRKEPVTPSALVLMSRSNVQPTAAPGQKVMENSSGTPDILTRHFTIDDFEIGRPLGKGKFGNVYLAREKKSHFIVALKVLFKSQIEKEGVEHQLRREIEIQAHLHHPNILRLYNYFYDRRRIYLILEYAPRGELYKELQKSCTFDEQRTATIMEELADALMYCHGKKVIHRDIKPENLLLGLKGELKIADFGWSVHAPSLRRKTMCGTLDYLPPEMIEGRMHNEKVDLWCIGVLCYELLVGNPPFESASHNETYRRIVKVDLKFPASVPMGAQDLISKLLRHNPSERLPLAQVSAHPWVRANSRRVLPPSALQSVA
# [15] = molecular target: full-length kinase/Nluc fusion proteins (Homo sapiens, UniProt Q08881); conditions: ITK, Nluc N; read-out: Probe EC50
# [16] = molecular target: full-length kinase/Nluc fusion proteins (Homo sapiens, UniProt Q9BVS4); conditions: RIOK2, Nluc N; read-out: Probe EC50
# [17] = molecular target: full-length kinase/Nluc fusion proteins (Homo sapiens, UniProt P31751); conditions: AKT2, Nluc C; read-out: Probe EC50
# [18] = molecular target: full-length kinase/Nluc fusion proteins (Homo sapiens, UniProt Q8NG66); conditions: NEK11, Nluc N; read-out: Probe EC50
# [19] = molecular target: full-length kinase/Nluc fusion proteins (Homo sapiens, UniProt P51817); conditions: PRKX, Nluc C; read-out: Probe EC50
# [20] = molecular target: full-length kinase/Nluc fusion proteins (Homo sapiens, UniProt P78368); conditions: CSNK1G2, Nluc N; read-out: Probe EC50
# [21] = molecular target: full-length kinase/Nluc fusion proteins (Homo sapiens, UniProt P31749); conditions: AKT1, Nluc C; read-out: Probe EC50
# [22] = molecular target: full-length kinase/Nluc fusion proteins (Homo sapiens, UniProt P22607); conditions: FGFR3, Nluc C; read-out: Probe EC50
# [23] = molecular target: full-length kinase/Nluc fusion proteins (Homo sapiens, UniProt P51812); conditions: RPS6KA3 (NP_004577), Nluc orientation N; read-out: Probe EC50
# [24] = molecular target: full-length kinase/Nluc fusion proteins (Homo sapiens, UniProt Q9Y616); conditions: IRAK3, Nluc N; read-out: Probe EC50
# full-length kinase/Nluc fusion proteins (Homo sapiens, UniProt Q9Y616), sequence (Q9Y616 whole entry, the tested form may be a part): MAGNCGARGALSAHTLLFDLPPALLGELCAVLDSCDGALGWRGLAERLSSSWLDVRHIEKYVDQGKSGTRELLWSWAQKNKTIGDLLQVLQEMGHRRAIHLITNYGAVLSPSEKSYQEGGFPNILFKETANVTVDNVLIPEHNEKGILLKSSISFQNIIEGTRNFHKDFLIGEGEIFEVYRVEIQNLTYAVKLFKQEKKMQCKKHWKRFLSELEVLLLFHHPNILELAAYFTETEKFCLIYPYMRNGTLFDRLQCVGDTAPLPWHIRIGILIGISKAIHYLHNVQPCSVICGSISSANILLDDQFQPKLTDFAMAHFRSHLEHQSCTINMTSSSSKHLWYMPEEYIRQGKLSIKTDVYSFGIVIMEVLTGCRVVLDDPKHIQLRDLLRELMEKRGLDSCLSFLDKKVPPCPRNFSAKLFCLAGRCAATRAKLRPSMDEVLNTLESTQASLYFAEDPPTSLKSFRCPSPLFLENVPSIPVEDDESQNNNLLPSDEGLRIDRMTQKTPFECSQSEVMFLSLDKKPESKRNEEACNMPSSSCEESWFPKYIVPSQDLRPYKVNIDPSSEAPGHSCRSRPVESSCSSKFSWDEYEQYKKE
# [25] = molecular target: full-length kinase/Nluc fusion proteins (Homo sapiens, UniProt P31152); conditions: MAPK4, Nluc N; read-out: Probe EC50
# [26] = molecular target: full-length kinase/Nluc fusion proteins (Homo sapiens, UniProt Q9NSY1); conditions: BMP2K, Nluc N; read-out: Probe EC50
# [27] = molecular target: full-length kinase/Nluc fusion proteins (Homo sapiens, UniProt P36896); conditions: ACVR1B, Nluc C; read-out: Probe EC50
# [28] = molecular target: full-length kinase/Nluc fusion proteins (Homo sapiens, UniProt P51956); conditions: NEK3, Nluc N; read-out: Probe EC50
# [29] = molecular target: full-length kinase/Nluc fusion proteins (Homo sapiens, UniProt Q12866); conditions: MERTK, Nluc C; read-out: Probe EC50
# [30] = molecular target: full-length kinase/Nluc fusion proteins (Homo sapiens, UniProt Q12851); conditions: MAP4K2, Nluc N; read-out: Probe EC50
# [31] = molecular target: full-length kinase/Nluc fusion proteins (Homo sapiens, UniProt O60285); conditions: NUAK1, Nluc N; read-out: Probe EC50
# full-length kinase/Nluc fusion proteins (Homo sapiens, UniProt O60285), sequence (O60285 whole entry, the tested form may be a part): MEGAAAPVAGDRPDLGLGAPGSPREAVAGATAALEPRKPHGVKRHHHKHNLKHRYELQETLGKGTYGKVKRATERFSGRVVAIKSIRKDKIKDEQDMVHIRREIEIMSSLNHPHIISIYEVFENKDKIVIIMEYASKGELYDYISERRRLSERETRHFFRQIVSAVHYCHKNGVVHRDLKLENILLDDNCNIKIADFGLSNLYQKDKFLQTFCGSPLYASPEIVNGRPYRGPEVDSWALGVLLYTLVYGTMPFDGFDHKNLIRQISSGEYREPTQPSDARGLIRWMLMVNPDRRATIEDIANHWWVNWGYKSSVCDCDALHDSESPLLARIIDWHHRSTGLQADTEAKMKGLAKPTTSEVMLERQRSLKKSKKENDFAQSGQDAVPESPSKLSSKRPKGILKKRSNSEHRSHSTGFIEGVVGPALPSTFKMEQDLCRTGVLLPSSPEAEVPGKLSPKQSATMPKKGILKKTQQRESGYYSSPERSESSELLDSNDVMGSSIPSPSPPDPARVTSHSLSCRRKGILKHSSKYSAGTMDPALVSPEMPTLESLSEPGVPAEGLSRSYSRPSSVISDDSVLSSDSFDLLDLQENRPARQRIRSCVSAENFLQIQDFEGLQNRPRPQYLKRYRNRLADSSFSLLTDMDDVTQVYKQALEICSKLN
# [32] = molecular target: full-length kinase/Nluc fusion proteins (Homo sapiens, UniProt Q8IWQ3); conditions: BRSK2, Nluc N; read-out: Probe EC50
# full-length kinase/Nluc fusion proteins (Homo sapiens, UniProt Q8IWQ3), sequence (Q8IWQ3 whole entry, the tested form may be a part): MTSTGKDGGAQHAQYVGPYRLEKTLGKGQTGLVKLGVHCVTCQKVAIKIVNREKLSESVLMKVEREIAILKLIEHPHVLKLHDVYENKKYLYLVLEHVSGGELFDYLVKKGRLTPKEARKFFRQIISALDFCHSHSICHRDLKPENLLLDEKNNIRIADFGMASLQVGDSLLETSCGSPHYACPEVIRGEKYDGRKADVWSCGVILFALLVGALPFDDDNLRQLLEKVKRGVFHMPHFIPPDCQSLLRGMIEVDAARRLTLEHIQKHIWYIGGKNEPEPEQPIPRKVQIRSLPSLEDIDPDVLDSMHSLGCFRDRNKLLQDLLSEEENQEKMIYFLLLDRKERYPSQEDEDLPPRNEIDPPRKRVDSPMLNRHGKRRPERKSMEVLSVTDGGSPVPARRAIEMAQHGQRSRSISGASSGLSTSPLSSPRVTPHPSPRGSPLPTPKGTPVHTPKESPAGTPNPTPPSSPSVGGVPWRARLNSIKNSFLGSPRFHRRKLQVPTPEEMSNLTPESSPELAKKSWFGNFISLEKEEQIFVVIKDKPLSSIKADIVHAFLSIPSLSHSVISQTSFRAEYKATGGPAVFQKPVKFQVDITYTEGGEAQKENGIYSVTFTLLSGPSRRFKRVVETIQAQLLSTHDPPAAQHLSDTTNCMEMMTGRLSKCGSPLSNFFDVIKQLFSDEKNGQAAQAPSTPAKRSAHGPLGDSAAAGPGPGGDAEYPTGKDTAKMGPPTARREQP
# [33] = molecular target: full-length kinase/Nluc fusion proteins (Homo sapiens, UniProt Q05397); conditions: PTK2, Nluc N; read-out: Probe EC50
# full-length kinase/Nluc fusion proteins (Homo sapiens, UniProt Q05397), sequence (Q05397 whole entry, the tested form may be a part): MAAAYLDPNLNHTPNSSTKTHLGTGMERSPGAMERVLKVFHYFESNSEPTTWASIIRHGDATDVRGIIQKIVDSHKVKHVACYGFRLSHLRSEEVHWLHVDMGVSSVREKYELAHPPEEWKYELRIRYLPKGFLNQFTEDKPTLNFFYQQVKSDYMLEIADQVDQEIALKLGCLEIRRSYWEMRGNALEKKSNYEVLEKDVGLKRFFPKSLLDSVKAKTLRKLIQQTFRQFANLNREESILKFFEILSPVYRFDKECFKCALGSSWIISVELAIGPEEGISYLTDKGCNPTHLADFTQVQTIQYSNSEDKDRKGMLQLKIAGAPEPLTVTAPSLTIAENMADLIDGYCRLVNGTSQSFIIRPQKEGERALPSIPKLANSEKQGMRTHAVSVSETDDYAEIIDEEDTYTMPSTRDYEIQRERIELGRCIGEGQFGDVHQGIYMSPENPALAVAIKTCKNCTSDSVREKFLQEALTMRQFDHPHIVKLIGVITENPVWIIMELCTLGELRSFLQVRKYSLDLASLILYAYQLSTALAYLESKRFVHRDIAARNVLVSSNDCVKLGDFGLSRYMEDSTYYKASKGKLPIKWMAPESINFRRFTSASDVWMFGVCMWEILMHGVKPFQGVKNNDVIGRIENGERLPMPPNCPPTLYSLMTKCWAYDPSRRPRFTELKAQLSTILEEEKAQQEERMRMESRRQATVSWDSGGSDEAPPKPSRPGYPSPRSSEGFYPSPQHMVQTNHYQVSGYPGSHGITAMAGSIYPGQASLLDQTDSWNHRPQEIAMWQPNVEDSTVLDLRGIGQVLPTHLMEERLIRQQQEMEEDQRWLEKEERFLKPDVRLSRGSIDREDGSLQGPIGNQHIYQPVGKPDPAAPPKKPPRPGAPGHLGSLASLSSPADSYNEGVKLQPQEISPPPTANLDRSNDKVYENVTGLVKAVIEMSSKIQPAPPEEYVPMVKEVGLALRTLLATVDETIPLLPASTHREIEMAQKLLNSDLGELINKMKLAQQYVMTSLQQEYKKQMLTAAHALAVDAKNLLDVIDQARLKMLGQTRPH
# full-length kinase/Nluc fusion proteins (Homo sapiens, UniProt P06241), sequence (P06241 whole entry, the tested form may be a part): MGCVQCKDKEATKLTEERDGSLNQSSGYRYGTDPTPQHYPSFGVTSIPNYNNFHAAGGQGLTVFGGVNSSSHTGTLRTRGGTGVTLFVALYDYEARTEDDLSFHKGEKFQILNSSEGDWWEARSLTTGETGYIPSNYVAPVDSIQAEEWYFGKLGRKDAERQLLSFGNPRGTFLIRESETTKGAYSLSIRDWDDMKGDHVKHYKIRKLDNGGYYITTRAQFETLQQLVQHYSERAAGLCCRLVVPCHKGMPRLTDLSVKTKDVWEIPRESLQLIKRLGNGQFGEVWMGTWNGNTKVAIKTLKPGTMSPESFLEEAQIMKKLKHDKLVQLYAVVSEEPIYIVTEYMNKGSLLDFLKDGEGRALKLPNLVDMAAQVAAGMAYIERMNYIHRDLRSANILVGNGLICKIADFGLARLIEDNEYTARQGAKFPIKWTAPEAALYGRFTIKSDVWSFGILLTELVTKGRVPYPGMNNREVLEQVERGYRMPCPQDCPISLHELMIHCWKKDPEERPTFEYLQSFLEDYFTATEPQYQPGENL
compound,measurement,setting,value
"Cc1nc(Nc2ncc(C(=O)Nc3c(C)cccc3Cl)s2)cc(N2CCN(CCOCCNC(=O)CCc3ccc4n3[B-](F)(F)[N+]3=C(c5ccc[nH]5)C=CC3=C4)CC2)n1 [Energy Transfer Probe 6, 2-((6-(4-(2-(2-aminoethoxy)ethyl)piperazin-1-yl)-2-methylpyrimidin-4-yl)amino)-N-(2-chloro-6-methylphenyl)thiazole-5-carboxamide-NanoBRET 590]",EC50,[1],200 nM
same,EC50,[2],500 nM
same,EC50,[3],10 nM
same,EC50,[4],200 nM
same,EC50,[5],80 nM
"CNC(=O)c1ccccc1Nc1nc(Nc2ccc(N3CCN(C(=O)CCOCCOCCOCCOCCNC(=O)CCc4ccc5n4[B-](F)(F)[N+]4=C(c6ccc[nH]6)C=CC4=C5)CC3)cc2)ncc1Cl [Energy Transfer Probe 5, 2-((2-((4-(4-(1-amino-3,6,9,12-tetraoxapentadecan-15-oyl)piperazin-1-yl)phenyl)amino)-5-chloropyrimidin-4-yl)amino)-N-methylbenzamide-NanoBRET 590]",EC50,[6],400 nM
same,EC50,[7],> 1000 nM
same,EC50,[8],400 nM
same,EC50,[9],400 nM
same,EC50,[10],> 1000 nM
same,EC50,[11],600 nM
same,EC50,[12],300 nM
same,EC50,[13],> 1000 nM
same,EC50,[14],10 nM
same,EC50,[15],40 nM
same,EC50,[16],> 1000 nM
same,EC50,[17],> 1000 nM
same,EC50,[18],> 1000 nM
same,EC50,[19],> 1000 nM
same,EC50,[20],> 1000 nM
same,EC50,[21],> 1000 nM
same,EC50,[22],500 nM
same,EC50,[23],200 nM
same,EC50,[24],60 nM
same,EC50,[25],> 1000 nM
same,EC50,[26],> 1000 nM
same,EC50,[27],> 1000 nM
same,EC50,[28],> 1000 nM
same,EC50,[29],300 nM
same,EC50,[30],> 1000 nM
same,EC50,[31],100 nM
same,EC50,[32],> 1000 nM
same,EC50,[33],90 nM

# — publication PMC5814754, “Quantitative, Wide-Spectrum Kinase Profiling in Live Cells for Assessing the Effect of Cellular ATP on Target Engagement” (Cell Chemical Biology, 2018)
